From patent US6737383B1, “Herbicidal oxadiazolidines” (priority 1999, dated 2004)

Legend:
bedstraw = assay: Test B pre/postemergence bedstraw; type: in vivo, Galium aparine
Procedure, shortened: (§1)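 Response is a visual 0-to-10 score relative to untreated plants, where 0 means no effect and 10 means complete control, taken twelve to sixteen days after application. Treatments went onto soil at planting and onto foliage of 1- to 4-leaf plants, using a surfactant-containing non-phytotoxic solvent.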

blackgrass = assay: Test B pre/postemergence blackgrass; type: in vivo, Alopecurus myosuroides
Procedure, shortened: as §1

surinam grass = assay: Test B pre/postemergence surinam grass; type: in vivo, Brachiaria decumbens
Procedure, shortened: as §1

corn = assay: Test B pre/postemergence corn; type: in vivo, Zea mays
Procedure, shortened: as §1

crabgrass = assay: Test B pre/postemergence crabgrass; type: in vivo, Digitaria sanguinalis
Procedure, shortened: as §1

giant foxtail = assay: Test B pre/postemergence giant foxtail; type: in vivo, Setaria faberii
Procedure, shortened: as §1

morningglory = assay: Test B pre/postemergence morningglory; type: in vivo, Ipomoea hederacea
Procedure, shortened: as §1

pigweed = assay: Test B pre/postemergence pigweed; type: in vivo, Amaranthus retroflexus
Procedure, shortened: as §1

soybean = assay: Test B pre/postemergence soybean; type: in vivo, Glycine max
Procedure, shortened: as §1

velvetleaf = assay: Test B pre/postemergence velvetleaf; type: in vivo, Abutilon theophrasti
Procedure, shortened: as §1

wheat = assay: Test B pre/postemergence wheat; type: in vivo, Triticum aestivum
Procedure, shortened: as §1

wild oat = assay: Test B pre/postemergence wild oat; type: in vivo, Avena fatua
Procedure, shortened: as §1

purple nutsedge = assay: Test B pre/postemergence purple nutsedge; type: in vivo, Cyperus rotundus
Procedure, shortened: as §1

[1] = Preemergence, Rate 62 g/ha, scale 0 to 10 (0 no effect, 10 complete control)
[2] = Preemergence, Rate 125 g/ha, 0 is no effect, 10 is complete control
[3] = Preemergence, Rate 250 g/ha, scale 0 to 10, 0 is no effect, 10 is complete control
[4] = Preemergence, Rate 500 g/ha, scale 0 to 10 (0 no effect, 10 complete control)
[5] = Rate 62 g/ha, Postemergence, scale of 0 to 10 where 0 is no effect and 10 is complete control
[6] = Rate 250 g/ha, Postemergence, scale 0 to 10, 0 is no effect, 10 is complete control
[7] = Postemergence, Rate 125 g/ha, scale of 0 to 10 where 0 is no effect and 10 is complete control
[8] = Rate 500 g/ha, Postemergence, scale 0 to 10

CCCn1c(=O)on(C(=O)N(c2ccc(F)cc2F)C(C)C)c1=O [Compound 130]
3: Blackgrass plant response rating (blackgrass; [5]) | Corn plant response rating (corn; [1]) | Corn plant response rating (0 to 10 scale) (corn; [2]) | Corn plant response rating (corn; [8]) | Morningglory plant response rating (morningglory; [3]) | Morningglory plant response rating (morningglory; [8]) | Redroot pigweed plant response rating (pigweed; [7]) | Plant response rating, Redroot pigweed (pigweed; [6]) | Soybean plant response rating (soybean; [3]) | Plant response rating, Soybean (soybean; [6]) | Velvetleaf plant response rating (velvetleaf; [7]) | Wheat plant response rating (0 to 10 scale) (wheat; [2]) | Plant response rating, Wheat (wheat; [6]) | Nutsedge plant response rating (purple nutsedge; [4])
6: Plant response rating, Bedstraw (bedstraw; [6]) | B. signalgrass plant response rating (surinam grass; [1]) | Corn plant response rating (corn; [3]) | Corn plant response rating (corn; [4]) | Crabgrass plant response rating (crabgrass; [1]) | Redroot pigweed plant response rating (pigweed; [1]) | Redroot pigweed plant response rating (pigweed; [8])
2: Bedstraw plant response rating (bedstraw; [3]) | B. signalgrass plant response rating (surinam grass; [7]) | Plant response rating, Corn (corn; [6]) | Morningglory plant response rating (morningglory; [7]) | Morningglory plant response rating (morningglory; [5]) | Plant response rating, Morningglory (morningglory; [6]) | Soybean plant response rating (soybean; [7]) | Wheat plant response rating (wheat; [1]) | Wild oats plant response rating (wild oat; [7])
1: B. signalgrass plant response rating (surinam grass; [5]) | Soybean plant response rating (soybean; [5]) | Wheat plant response rating (wheat; [7])
8: Bedstraw plant response rating (bedstraw; Rate 500 g/ha, Postemergence, scale 0 to 10, 0 no effect, 10 complete control) | Blackgrass plant response rating (blackgrass; [8]) | B. signalgrass plant response rating (surinam grass; Rate 500 g/ha, Postemergence, scale of 0 to 10 where 0 is no effect and 10 is complete control) | Giant foxtail plant response rating (giant foxtail; [5]) | Velvetleaf plant response rating (0 to 10 scale) (velvetleaf; [2]) | Velvetleaf plant response rating (velvetleaf; [3]) | Wheat plant response rating (wheat; [8]) | Wild oats plant response rating (0 to 10 scale) (wild oat; [2]) | Wild oats plant response rating (wild oat; [8])
10: Bedstraw plant response rating (bedstraw; [4]) | Blackgrass plant response rating (blackgrass; [4]) | Crabgrass plant response rating (crabgrass; [4]) | Giant foxtail plant response rating (giant foxtail; [3]) | Giant foxtail plant response rating (giant foxtail; [4]) | Redroot pigweed plant response rating (0 to 10 scale) (pigweed; [2]) | Redroot pigweed plant response rating (pigweed; [3]) | Redroot pigweed plant response rating (pigweed; [4]) | Velvetleaf plant response rating (velvetleaf; [4]) | Wild oats plant response rating (wild oat; [3]) | Wild oats plant response rating (wild oat; [4])
9: Blackgrass plant response rating (0 to 10 scale) (blackgrass; [2]) | Blackgrass plant response rating (blackgrass; [3]) | B. signalgrass plant response rating (0 to 10 scale) (surinam grass; [2]) | B. signalgrass plant response rating (surinam grass; [3]) | B. signalgrass plant response rating (surinam grass; [4]) | Crabgrass plant response rating (crabgrass; [7]) | Crabgrass plant response rating (0 to 10 scale) (crabgrass; [2]) | Crabgrass plant response rating (crabgrass; [3]) | Plant response rating, Crabgrass (crabgrass; [6]) | Crabgrass plant response rating (crabgrass; [8]) | Giant foxtail plant response rating (giant foxtail; [7]) | Giant foxtail plant response rating (0 to 10 scale) (giant foxtail; [2]) | Plant response rating, Giant foxtail (giant foxtail; [6]) | Giant foxtail plant response rating (giant foxtail; [8])
5: Blackgrass plant response rating (blackgrass; [7]) | Blackgrass plant response rating (blackgrass; [1]) | Crabgrass plant response rating (crabgrass; [5]) | Soybean plant response rating (soybean; [8]) | Velvetleaf plant response rating (velvetleaf; [1]) | Plant response rating, Velvetleaf (velvetleaf; [6]) | Velvetleaf plant response rating (velvetleaf; [8]) | Plant response rating, Wild oats (wild oat; [6])
4: Morningglory plant response rating (morningglory; [4]) | Soybean plant response rating (soybean; [4]) | Wheat plant response rating (wheat; [4])
0: Bedstraw plant response rating (bedstraw; [1]) | Bedstraw plant response rating (0 to 10 scale) (bedstraw; [2]) | Bedstraw plant response rating (bedstraw; [5]) | Corn plant response rating (corn; [7]) | Corn plant response rating (corn; [5]) | Morningglory plant response rating (morningglory; [1]) | Morningglory plant response rating (0 to 10 scale) (morningglory; [2]) | Redroot pigweed plant response rating (pigweed; [5]) | Soybean plant response rating (soybean; [1]) | Soybean plant response rating (0 to 10 scale) (soybean; [2]) | Velvetleaf plant response rating (velvetleaf; [5]) | Wheat plant response rating (wheat; [5]) | Wild oats plant response rating (wild oat; [5]) | Nutsedge plant response rating (purple nutsedge; [7]) | Nutsedge plant response rating (purple nutsedge; [1]) | Nutsedge plant response rating (0 to 10 scale) (purple nutsedge; [2]) | Nutsedge plant response rating (purple nutsedge; [3]) | Nutsedge plant response rating (purple nutsedge; [5]) | Plant response rating, Nutsedge (purple nutsedge; [6]) | Nutsedge plant response rating (purple nutsedge; [8])
7: Plant response rating, Blackgrass (blackgrass; [6]) | Plant response rating, B. signalgrass (surinam grass; [6]) | Giant foxtail plant response rating (giant foxtail; [1]) | Wild oats plant response rating (wild oat; [1])
